Earlier results in US11136251B2, “Compositions, methods, and devices for capturing phosphate from water” (REGENTS OF THE UNIVERSITY OF MINNESOTA, priority 2017, dated 2021).

selectivity for HPO4^2− over HCO3^− / bicarbonate binding: two-fold
SMILES: O=C([O-])CN(CCN(CC(=O)[O-])CC(=O)O)CCN(CC(=O)[O-])CC(=O)O.[Gd+3] [Gd-DTPA]
